Assay results reported in PubChem BioAssay AID1963443 (Molecular Pharmacology Branch, DTP, NCI, 2024).
Blank lines part the entries; values can stand above or below the compound they belong to.

Tested on: MDA-MB-231 complex spheroids, growth inhibition
Test: Anticancer human tumor MDA-MB-231 cell line growth inhibition [Asc];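 further: spheroids exposed to compounds for 7 days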
Conditions: for IC50: curve of first compound; for viability, T/C: stronger effect = lower value
Procedure: Multicellular complex tumor spheroid response to apoptosis pathway targeting inhibitors Alrizomadlin, Pelcitoclax, and Dasminapant in combination with a variety of drugs and investigational agents in selected tumor cell lines
The MDM2 inhibitor alrizomadlin, the Bcl-2/Bcl-xL inhibitor pelcitoclax, and the IAPs inhibitor dasminapant were evaluated both individually and in combination with standard of care and investigational anticancer small molecules within a complex spheroid model of solid tumors. . Complex spheroids include a stromal component modeled by human endothelial cells (HUVEC) and fibroblasts modeled by human mesenchymal stem cells (MSCs). The concentration ranges selected for each drug and investigational agent were based upon clinically achievable concentrations if the clinical Cmax of the agent was known.
Compounds. The drugs and investigational agents: alrizomadlin (APG-115; NSC831270), pelcitoclax (APG-1252; NSC835773), dasminapant (APG-1387;NSC834197), TAK-243 (NSC785004), copanlisib (NSC809693), olaparib (NSC753686), talazoparib (NSC767125), cobimetinib (NSC 768068), eltanexor (KPT-8602, NSC 794443), abemaciclib (NSC 768073), sotorasib (NSC818433), adagrasib (NSC 831453), MRTX-1133 (NSC 836407), Iadademestat (ORY1001, NSC 806812), and RMC-4630 (NSC839698), were obtained from the NCI Developmental Therapeutics Program Chemical Repository. The FDA-approved anticancer drug set is available from the Developmental Therapeutics Program at https://dtp.cancer.gov/organization/dscb/obtaining/available plates.htm. […] The stock solutions were prepared in dimethyl sulfoxide (DMSO, Sigma-Aldrich, St. Louis, MO, cat. D2650) at 800-fold the tested concentration and stored at -70 degrees C prior to their use. All drugs and investigational agents were tested over a range starting from a high concentration at or near the clinical Cmax and decreasing in half-log increments. If the clinical Cmax for an agent had not been determined, the highest concentration tested was 10 microM.
The patient-derived cancer (PDC) cell lines include five colon adenocarcinomas: 186277-243-T-J2-PDC, 616215-338-R-J1-PDC, 439559-082-T-J2-PDC, 463943-066-T-J2-PDC, and 519858-162-T-J1-PDC; three pancreatic carcinomas: 323965-272-R-J2-PDC, 521955-158-R6-J3-PDC, and 521955-158-R2-J5-PDC; two uterine sarcomas: 327498-152-R-J2-PDC and 993429-296-R-J1-PDC; two rhabdomyosarcomas: 755483-174-R-J1-PDC and 772245-204-R-J1-PDC; two soft tissue sarcomas: 126254-015-R-J1-PDC and 494315-158-R-J1-PDC; two malignant fibrous histiocytomas: 317291-083-R-J1-PDC and 596521-263-R-J1-PDC; two breast carcinomas: 171881-019-R-J1-PDC and 885512-296-R-J2-PDC; and one ovarian carcinoma: 6556581-035-R-J-PDC were obtained from the NCI PDMR, (https://pdmr.cancer.gov). The established cell lines HSSY-2 synovial sarcoma (RRID:CVCL 8719), SYO-1 synovial sarcoma (RRID:CVCL_7146), MPNST malignant peripheral neural sheath tumor were obtained from the Sloan Kettering Institute. The following established cell lines were purchased from the American Type Culture Collection (ATCC, Manassas, VA), Sor the received from the NCI repository:, PANC-1 pancreatic carcinoma (CRL-1469, RRID:CVCL_0480), OVCAR-5 ovarian carcinoma (RRID:CVCL_1628), OVCAR-8 ovarian carcinoma (RRID:CVCL_1629), , MCF-7 breast carcinoma (CRL-12584, RRID:CVCL_0031), MDA-MB-231 breast carcinoma (CRL-12532, RRID:CVCL_0062), NCI-H1876 small cell lung carcinoma (CRL-5902, RRID:CVCL_1503), NCI-H510A small cell lung carcinoma (HTB-184, RRID:CVCL_1565), NCI-H1417 (CRL-5869, RRID:CVCL_1469), and NCI-H196 small cell lung carcinoma (CRL-5823, RRID:CVCL_1509). Dr. Peter Houghton (Greehey Children's Cancer Research Institute, University of Texas Health Science Center, San Antonio, TX) provided Rh-18 rhabdomyosarcoma (RRID:CVCL_1659). Pooled donor human umbilical vein endothelial cells (HUVEC, Lonza, cat. CC-2519) and human mesenchymal stem cells (hMSC, Lonza, cat. PT-2501) were purchased from Lonza (Walkersville, MD).
Cell Culture. […]

IC50 (second compound 0.01 µM): < 0.316 nM | IC50 (second compound 0.0316 µM): < 0.316 nM | IC50 (second compound 0.1 µM): < 0.316 nM | IC50 (second compound 0.316 µM): < 0.316 nM | IC50 (second compound 1 µM): < 0.316 nM
Structure (SMILES): NC1CCC(NC2CC2c2ccccc2)CC1 (stereo not given) + CNC(C)C(=O)NC1CN(S(=O)(=O)c2cccc(S(=O)(=O)N3CCC4CCC(C(=O)NC(c5ccccc5)c5ccccc5)N4C(=O)C(NC(=O)C(C)NC)C3)c2)CCC2CCC(C(=O)NC(c3ccccc3)c3ccccc3)N2C1=O
viability, T/C (second compound 0.01 µM, first compound 0.000316 µM): 4.48% | viability, T/C (second compound 0.01 µM, first compound 0.001 µM): 3.37% | viability, T/C (second compound 0.01 µM, first compound 0.00316 µM): 3.36% | viability, T/C (second compound 0.01 µM, first compound 0.01 µM): 4.1% | viability, T/C (second compound 0.01 µM, first compound 0.0316 µM): 4.51% | viability, T/C (second compound 0.01 µM, first compound 0.1 µM): 3.46% | viability, T/C (second compound 0.0316 µM, first compound 0.000316 µM): 1.91% | viability, T/C (second compound 0.0316 µM, first compound 0.001 µM): 3.37% | viability, T/C (second compound 0.0316 µM, first compound 0.00316 µM): 2.61% | viability, T/C (second compound 0.0316 µM, first compound 0.01 µM): 2.96% | viability, T/C (second compound 0.0316 µM, first compound 0.0316 µM): 2.47% | viability, T/C (second compound 0.0316 µM, first compound 0.1 µM): 2.27% | viability, T/C (second compound 0.1 µM, first compound 0.000316 µM): 2.48% | viability, T/C (second compound 0.1 µM, first compound 0.001 µM): 2.67% | viability, T/C (second compound 0.1 µM, first compound 0.00316 µM): 3.07% | viability, T/C (second compound 0.1 µM, first compound 0.01 µM): 2.19% | viability, T/C (second compound 0.1 µM, first compound 0.0316 µM): 2.11% | viability, T/C (second compound 0.1 µM, first compound 0.1 µM): 2.38% | viability, T/C (second compound 0.316 µM, first compound 0.000316 µM): 1.42% | viability, T/C (second compound 0.316 µM, first compound 0.001 µM): 3.18% | viability, T/C (second compound 0.316 µM, first compound 0.00316 µM): 2.55% | viability, T/C (second compound 0.316 µM, first compound 0.01 µM): 0.99% | viability, T/C (second compound 0.316 µM, first compound 0.0316 µM): 1.23% | viability, T/C (second compound 0.316 µM, first compound 0.1 µM): 0.81% | viability, T/C (second compound 1 µM, first compound 0.000316 µM): 1.08% | viability, T/C (second compound 1 µM, first compound 0.001 µM): 1.04% | viability, T/C (second compound 1 µM, first compound 0.00316 µM): 1.62% | viability, T/C (second compound 1 µM, first compound 0.01 µM): 0.85% | viability, T/C (second compound 1 µM, first compound 0.0316 µM): 0.86% | viability, T/C (second compound 1 µM, first compound 0.1 µM): 0.84%

IC50 (second compound 0.03 µM): 56.2 nM | IC50 (second compound 0.0949 µM): 56.9 nM | IC50 (second compound 0.3 µM): 45.2 nM | IC50 (second compound 0.949 µM): 36 nM | IC50 (second compound 3 µM): 14.5 nM
Structure (SMILES): O=C(c1ccc(F)c(F)c1Nc1ccc(I)cc1F)N1CC(O)([C@@H]2CCCCN2)C1 + CCN1C(C(=O)NC23CCC(C(=O)O)(CC2)CC3)C(c2cccc(Cl)c2F)C2(C(=O)Nc3cc(Cl)ccc32)C12CCCCC2
viability, T/C (second compound 0.03 µM, first compound 0.00316 µM): 81.9% | viability, T/C (second compound 0.03 µM, first compound 0.01 µM): 65.3% | viability, T/C (second compound 0.03 µM, first compound 0.0316 µM): 53.4% | viability, T/C (second compound 0.03 µM, first compound 0.1 µM): 47.6% | viability, T/C (second compound 0.03 µM, first compound 0.316 µM): 30.3% | viability, T/C (second compound 0.03 µM, first compound 1 µM): 5.13% | viability, T/C (second compound 0.0949 µM, first compound 0.00316 µM): 84.8% | viability, T/C (second compound 0.0949 µM, first compound 0.01 µM): 64.5% | viability, T/C (second compound 0.0949 µM, first compound 0.0316 µM): 54.1% | viability, T/C (second compound 0.0949 µM, first compound 0.1 µM): 47.6% | viability, T/C (second compound 0.0949 µM, first compound 0.316 µM): 30.6% | viability, T/C (second compound 0.0949 µM, first compound 1 µM): 4.62% | viability, T/C (second compound 0.3 µM, first compound 0.00316 µM): 95.7% | viability, T/C (second compound 0.3 µM, first compound 0.01 µM): 63.6% | viability, T/C (second compound 0.3 µM, first compound 0.0316 µM): 53.2% | viability, T/C (second compound 0.3 µM, first compound 0.1 µM): 44.4% | viability, T/C (second compound 0.3 µM, first compound 0.316 µM): 27.3% | viability, T/C (second compound 0.3 µM, first compound 1 µM): 4.93% | viability, T/C (second compound 0.949 µM, first compound 0.00316 µM): 86% | viability, T/C (second compound 0.949 µM, first compound 0.01 µM): 58.5% | viability, T/C (second compound 0.949 µM, first compound 0.0316 µM): 52.3% | viability, T/C (second compound 0.949 µM, first compound 0.1 µM): 40.3% | viability, T/C (second compound 0.949 µM, first compound 0.316 µM): 22.6% | viability, T/C (second compound 0.949 µM, first compound 1 µM): 4.93% | viability, T/C (second compound 3 µM, first compound 0.00316 µM): 70.9% | viability, T/C (second compound 3 µM, first compound 0.01 µM): 48.6% | viability, T/C (second compound 3 µM, first compound 0.0316 µM): 43% | viability, T/C (second compound 3 µM, first compound 0.1 µM): 31.7% | viability, T/C (second compound 3 µM, first compound 0.316 µM): 11.5% | viability, T/C (second compound 3 µM, first compound 1 µM): 4.76%
